Source: patent US20250222109A1, “STRUCTURED LIPID COMPOSITIONS” (Universität Bern, priority 2022, published 2025)

What was measured:
[1] = Drug encapsulation and distribution in TIF-Gel (WAXS, HPLC of gel layers); type: physicochemical
Procedure: The tube was centrifuged and kept at rest for 24 hours. Subsequently, the gel was divided into 3 different layers (Top, Middle, and Bottom), and the drug content evaluated in each by HPLC.
WAXS measurements were performed on a Bruker AXS Micro, with a microfocused X-ray source, operating at voltage and filament current of 50 kV and 1000 μA, respectively. The Cu Kα radiation (λCu Kα=1.5418 Å) was collimated by a 2D Kratky collimator, and the data were collected by a 2D Pilatus 100K detector. The scattering vector Q=(4π/λ) sin θ, with 2θ being the scattering angle, was calibrated using silver behenate. Data were collected and azimuthally averaged using the Saxsgui software to yield 1D intensity vs. scattering vector Q, with a Q range from 13 to 18 nm-1. For all measurements the samples were placed inside a stainless-steel cell between two thin replaceable mica sheets and sealed by an O-ring, with a sample volume of 10 μL and a thickness of ˜1 mm.
The TAC loaded mesophase composition comprised: a) a carrier comprising: a1) water in an amount of 16% by weight of the carrier; and a2) MLO in an amount of 84% by weight of the carrier; and b) TAC in an amount of 1% by weight of the composition.

[2] = test system: T cell transfer colitis; test: T-cell transfer colitis; type: in vivo, mice
Excerpt: To induce T cell mediated colitis, CD4+ T cells were isolated from the spleen of C57/BL6 mice (Strain #: 000664; RRID:IMSR_JAX: 000664 ex. Jackson laboratories) using the CD4 T cell isolation kit from Stemcell Technologies (#19852; Cologne, Germany) and subsequently naïve T helper cells (CD3+, CD4+, CD25low, […], CD44low cells) were sorted on a FACS Aria III (Becton Dickinson; Eysins, Switzerland) as described previously (D. V. Ostanin, et al., T cell transfer model of chronic colitis: Concepts, considerations, and tricks of the tradeAm. J. Physiol.—Gastrointest. Liver Physiol. 296, 135-146 (2009); M. R. Spalinger, et al., PTPN2 controls differentiation of CD4+ T cells and limits intestinal inflammation and intestinal dysbiosis, Mucosal Immunol. 8, 918-929 (2015); M. R. Spalinger, et al., Loss of PTPN22 Promotes Intestinal Inflammation by Compromising Granulocyte-mediated Antibacterial Defence, J. Crohn's Colitis 15, 2118-2130 (2021)). 12-15 week old male and female Rag^−/− mice in the C57/BL6 background (model RAGN12 (B6.129S6-Rag2^tm1Fwa N12) ex. Taconic) were injected intraperitoneally with 2.5×10^5 naïve T helper cells (all methods used were approved under licence no. ZH043/2021). Starting on day 2 post T cell injection, the mice received one daily rectal instillation (100 μL) of empty TIF-Gels, TAC-loaded TIF-Gels or TAC in vehicle solution (1% […] in distilled water). Weight development and disease activity scores were measured on a daily basis. On the last day of the experiment (day 18), the mice were anaesthetised using a mixture of ketamine 90-120 mg/kg bodyweight (Vétoquinol, Bern, Switzerland) and xylazine 8 mg/kg bodyweight (Bayer, Lyssach, Switzerland), and were subjected to mouse endoscopy to assess the extent of endoscopic colitis (M. R. Spalinger, et al., Protein tyrosine phosphatase non-receptor type 22 modulates colitis in a microbiota-dependent manner, J. Clin. Invest. 129, 2527-2541 (2019)) using the following parameters: 1) thickening of the colon wall, 2) vascularisation/bleeding, 3) extent of fibrin deposits, 4) granular appearance of the colon wall, 5) stool consistency. Each parameter was given a score from 0 (normal) to 3 (most severe appearance), resulting in a maximal total score of 15. After colonoscopy, the mice were sacrificed and colon tissue harvested for histology and isolation of lamina propria immune cells. Immune cells were isolated from the colon, mesenteric lymph nodes and the spleen, and analysed for immune cell subsets (M. R. Spalinger, et al., (2019) Loss of PTPN22 abrogates the beneficial effect of cohousing-mediated fecal microbiota transfer in murine colitis, Mucosal Immunol. 12, 1336-1347).
To assess the microscopic extent of colitis, formalin-fixed, paraffin embedded sections of the most distal 1.5 cm of the colon were subjected to hematoxilin and eosin (H&E) staining using standard protocols (M. R. Spalinger, et al. (2019)). The sections were analysed by two blinded scientists for the extent of epithelial damage (score 0-4) and infiltration of immune cells (score 0-4) resulting in a maximal possible score of 8. Images were taken using a Zeiss Axio Imager.Z2 microscope (Zeiss), equipped with an AxioCam HRc (Zeiss, Jena, Germany) camera and ZEN imaging software (Zeiss, Germany).
To analyse cytokine levels in the colons, colon pieces were lysed in PBS (1 ml PBS/[…] tissue) using a GentleMACS device from Miltenyi Biotec (Miltenyi Biotec, Bergisch Gladbach, Germany). Lysates were then analysed for cytokines using the Bio-Plex Pro Mouse Cytokine 23-plex Assay from Bio-Rad (Hercules, CA) according to the manufacturer's instructions.
TIF-Gel acts as a platform able to host and release molecules with different polarity. Thus, the hydrophobic TAC was loaded in to TIF-Gel and its ability to reduce colitis severity was assessed also using a model of T cell mediated colitis, namely T cell transfer colitis. […]

[3] = Stability study of TAC and TOFA-loaded TIF-Gel (HPLC); type: physicochemical; conditions: 4° C. and 25° C., one-month period
Procedure: The TAC and TOFA-loaded TIF-Gels were prepared according to Example 1. […] The TAC-loaded TIF-Gel composition comprised a) a carrier comprising: a1) water in an amount of 16% by weight of the carrier; and a2) MLO in an amount of 84% by weight of the carrier; and b) TAC in an amount of 1% by weight of the composition. […] At specific time points, an aliquot of the formulation was analysed at the HPLC, and the content of the drug was recorded. Data are expressed as relative percentage referred to day 0.

[4] = test system: T cell transfer colitis; test: T-cell transfer colitis; type: in vivo, mice; conditions: colonoscopy, day 19 post T cell application
[5] = daily rectal instillation 100 μL

SMILES: C=CC[C@@H]1/C=C(\C)C[C@H](C)C[C@H](OC)[C@H]2O[C@@](O)(C(=O)C(=O)N3CCCC[C@H]3C(=O)O[C@H](/C(C)=C/[C@@H]3CC[C@@H](O)[C@H](OC)C3)[C@H](C)[C@@H](O)CC1=O)[C@H](C)C[C@@H]2OC [TAC, tacrolimus]
- distribution of drug in the gel matrix ([1]; Top, Middle and Bottom gel layers, HPLC): homogeneously distributed
- drug crystallisation in the gel (WAXS) ([1]; embedded in the 3D gel structure): do not form crystals
- encapsulation efficacy ([1]; encapsulated in the TIF-Gel): 100%
- levels of IFN-γ ([2]; colonic tissues): reduced levels
- levels of IL-17 ([2]; colonic tissues): reduced levels
- first signs of colitis, day post T cell transfer ([2]; daily rectal instillation): ~10 days
- diarrhoea / disease activity score [2, 5]: signs of diarrhoea
- weight development [2, 5]: progressive weight loss
- relative abundance of T cells ([2]; lamina propria, mesenteric lymph nodes and spleen): reduced the relative abundance of T cells
- abundance of FOXP3+ (regulatory) T cells ([2]; mouse, in vivo): not much effect
- Th1 cells ([2]; vs empty TIF-Gels): reduced
- Th17 cells ([2]; vs empty TIF-Gels): reduced
- colon length ([2]; vs empty TIF-Gels): longer colons
- spleen weight ([2]; vs empty TIF-Gels): reduced spleen weight
- long-term stability of drug loaded into TIF-gel (drug content by HPLC) [3]: stable
- endoscopic signs of colitis [4]: reduced endoscopic signs of colitis
